Source: ChEMBL document CHEMBL3039007, “Structure-based identification of OATP1B1/3 inhibitors” (Mol Pharmacol, 2013)

Assays:
[1] = molecular target: T1, Solute carrier organic anion transporter family member 1B3 (Homo sapiens, UniProt Q9NPD5); conditions: chinese hamster, cho, 10 µM
T1 sequence (Q9NPD5 whole entry): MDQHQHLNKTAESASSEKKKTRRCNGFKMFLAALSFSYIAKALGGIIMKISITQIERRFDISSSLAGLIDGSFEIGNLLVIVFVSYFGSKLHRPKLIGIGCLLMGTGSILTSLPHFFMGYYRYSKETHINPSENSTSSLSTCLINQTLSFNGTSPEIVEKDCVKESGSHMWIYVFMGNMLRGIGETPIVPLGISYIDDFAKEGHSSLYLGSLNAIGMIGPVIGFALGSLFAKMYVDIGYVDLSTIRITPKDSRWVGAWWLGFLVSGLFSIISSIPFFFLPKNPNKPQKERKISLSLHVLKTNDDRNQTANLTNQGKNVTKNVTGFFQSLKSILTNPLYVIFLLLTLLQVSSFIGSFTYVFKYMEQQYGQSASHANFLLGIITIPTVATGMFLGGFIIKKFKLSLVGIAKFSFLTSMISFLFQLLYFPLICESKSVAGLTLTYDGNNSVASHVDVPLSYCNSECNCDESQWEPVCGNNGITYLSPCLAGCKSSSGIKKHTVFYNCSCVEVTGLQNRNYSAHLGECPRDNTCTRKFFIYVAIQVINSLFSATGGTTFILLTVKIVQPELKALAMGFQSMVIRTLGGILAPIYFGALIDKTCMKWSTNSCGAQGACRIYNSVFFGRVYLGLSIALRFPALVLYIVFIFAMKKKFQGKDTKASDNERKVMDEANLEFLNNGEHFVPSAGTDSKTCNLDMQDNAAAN

[2] = molecular target: T2, Solute carrier organic anion transporter family member 1B1 (Homo sapiens, UniProt Q9Y6L6); conditions: chinese hamster, cho, 10 µM
T2 sequence (Q9Y6L6 whole entry): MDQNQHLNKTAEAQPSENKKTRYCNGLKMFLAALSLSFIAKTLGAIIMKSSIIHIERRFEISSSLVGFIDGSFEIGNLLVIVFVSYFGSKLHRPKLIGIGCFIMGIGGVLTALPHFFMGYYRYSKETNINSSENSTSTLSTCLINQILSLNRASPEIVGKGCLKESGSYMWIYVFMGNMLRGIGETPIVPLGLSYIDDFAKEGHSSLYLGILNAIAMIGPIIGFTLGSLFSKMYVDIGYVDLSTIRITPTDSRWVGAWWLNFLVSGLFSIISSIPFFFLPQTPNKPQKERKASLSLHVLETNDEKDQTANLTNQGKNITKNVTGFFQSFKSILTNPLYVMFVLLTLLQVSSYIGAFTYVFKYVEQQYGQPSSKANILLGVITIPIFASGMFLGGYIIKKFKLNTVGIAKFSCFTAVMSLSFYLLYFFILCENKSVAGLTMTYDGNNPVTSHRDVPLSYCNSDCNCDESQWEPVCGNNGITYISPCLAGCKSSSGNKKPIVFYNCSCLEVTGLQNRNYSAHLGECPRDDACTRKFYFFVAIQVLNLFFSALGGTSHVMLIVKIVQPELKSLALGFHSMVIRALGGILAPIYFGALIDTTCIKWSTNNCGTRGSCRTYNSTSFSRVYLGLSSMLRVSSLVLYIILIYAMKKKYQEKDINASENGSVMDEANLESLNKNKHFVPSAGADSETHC

SMILES | residual activity [1] [%] | residual activity [2] [%]
C[N+]1(C)CCCC(OC(=O)C(O)(c2ccccc2)c2ccccc2)C1.[Br-] (configuration not stated) [MEPENZOLATE BROMIDE] | 106.1 | 121.8
Cc1ccccc1OCC(O)CO (configuration not stated) [MEPHENESIN] | 107.5 | 101
Cc1cccc(C)c1NC(=O)C1CCCCN1C.Cl (configuration not stated) [MEPIVACAINE HYDROCHLORIDE] | 96.16 | 96.31
Sc1ncnc2nc[nH]c12 [MERCAPTOPURINE ANHYDROUS] | 105.3 | 107.8
CC1=C2C(O)C(=O)OC3CC4C(C)(C)C(=O)C=C[C@]4(C)C(CC1)[C@]23C (some centres not stated) [MEROGEDUNIN] | 83.06 | 106.3
O=S(=O)([O-])CCS.[Na+] [MESNA] | 97.81 | 95.36
CC(=O)Nc1cccc(O)c1 [METACETAMOL] | 79.17 | 66.39
COc1cc2c(cc1OC)C(=O)OC2 [METAMECONINE] | 95.41 | 92.42
CC(C)NCC(O)c1cc(O)cc(O)c1 (configuration not stated) [METAPROTERENOL] | 111.7 | 108.3
Cc1cc(C)cc(OCC2CNC(=O)O2)c1 (configuration not stated) [METAXALONE] | 93.18 | 88.21
CC(=O)OC(C)C[N+](C)(C)C.[Cl-] (configuration not stated) [METHACHOLINE CHLORIDE] | 106.9 | 86.62
C=C1c2cccc(O)c2C(=O)C2=C(O)[C@]3(O)C(=O)C(C(N)=O)=C(O)[C@@H](N(C)C)[C@@H]3[C@@H](O)[C@H]12.Cl [METHACYCLINE HYDROCHLORIDE] | 110.7 | 110.8
COP(N)(=O)SC (configuration not stated) [METHAMIDOPHOS] | 106 | 96.41
COS(C)(=O)=O [METHANESULFONIC ACID METHYL ESTER] | 79.48 | 57.02
CN(C)CCN(Cc1cccs1)c1ccccn1.Cl [METHAPYRILENE HYDROCHLORIDE] | 82.96 | 83.03
CC(=O)/N=c1/sc(S(N)(=O)=O)nn1C [METHAZOLAMIDE] | 93.09 | 101.3
C1N2CN3CN1CN(C2)C3 [METHENAMINE] | 72.89 | 93.33
Cn1cc[nH]c1=S [METHIMAZOLE] | 105.6 | 111.7
COc1ccccc1OCC(O)COC(N)=O (configuration not stated) [METHOCARBAMOL] | 104.7 | 101.2
CNC(=O)ON=C(C)SC [METHOMYL] | 109.3 | 80.5
COc1ccc(OC)c(C(O)C(C)N)c1.Cl (configuration not stated) [METHOXAMINE HYDROCHLORIDE] | 104.7 | 80.21
COc1c2occc2cc2ccc(=O)oc12 [METHOXSALEN] | 107.3 | 102.5
CON.Cl [METHOXYAMINE HYDROCHLORIDE] | 108.6 | 118.4

SMILES | residual activity [1] [%] | residual activity [2] [%]
COc1ccc(C(c2ccc(OC)cc2)C(Cl)(Cl)Cl)cc1 [METHOXYCHLOR] | 102.3 | 114
COc1cc(C)c2c(=O)cc(-c3ccccc3)oc2c1 [METHOXYVONE] | 102.8 | 231.1
C[N+]1(C)[C@@H]2C[C@@H](OC(=O)[C@H](CO)c3ccccc3)C[C@H]1[C@@H]1O[C@@H]12.[Br-] [METHSCOPOLAMINE BROMIDE] | 92.61 | 104.8
COC(=O)c1cc(O)c(=O)c2c(O)c(O)ccc2c1 [METHYL 7-DESHYDROXYPYROGALLIN-4-CARBOXYLATE] | 80.24 | 48.16
COC(=O)c1cc(OC)c(=O)c2c(OC)c(OC)ccc2c1 [METHYL 7-DESOXYPURPUROGALLIN-7-CARBOXYLATE TRIMETHYL ETHER] | 100.1 | 133.8
COc1cc2c(cc1O)C(Cc1ccc(O)cc1)N(C)CC2 (configuration not stated) [METHYL COCLAURINE] | 94.46 | 96.63
COC(=O)CC[C@@H](C)[C@H]1CC[C@H]2[C@@H]3CC[C@@H]4C[C@H](O)CC[C@]4(C)[C@H]3C[C@H](O)[C@]12C [METHYL DEOXYCHOLATE] | 71.46 | 62.17
COC(=O)c1c(C)cc(O)cc1O [METHYL ORSELLINATE] | 98.38 | 90.83
COP(=S)(OC)Oc1ccc([N+](=O)[O-])cc1 [METHYL PARATHIONE] | 100.2 | 107.9
COc1c2c(cc3occ(-c4ccc5c(c4)OCO5)c(=O)c13)OC(C)(C)C=C2 [METHYL ROBUSTONE] | 107.5 | 133
C=C1[C@@H]2CC[C@@]3(C)[C@H](c4ccoc4)OC(=O)C[C@]13O[C@H]1CC(=O)C(C)(C)[C@H](CC(=O)OC)[C@]12C [METHYLANGOLENSATE] | 33.7 | 20.27
Cc1coc2ccccc2c1=O [METHYLCHROMONE] | 92.21 | 91.88
C[C@](N)(Cc1ccc(O)c(O)c1)C(=O)O [METHYLDOPA] | 103.5 | 111.3
CC[C@@H](CO)NC(=O)[C@@H]1C=C2c3cccc4[nH]cc(c34)C[C@H]2N(C)C1.O=C(O)/C=C\C(=O)O [METHYLERGONOVINE MALEATE] | 108.9 | 77.53
CCOC(=O)c1c(C)cc(O)c(C)c1O [METHYLORSELLINIC ACID, ETHYL ESTER] | 105.6 | 76.13
CC(=O)OCC(=O)[C@@]1(O)CC[C@H]2[C@@H]3C[C@H](C)C4=CC(=O)C=C[C@]4(C)[C@H]3[C@@H](O)C[C@@]21C [METHYLPREDNISOLONE ACETATE] | 84.05 | 52.04
C[C@H]1C[C@@H]2[C@H]([C@@H](O)C[C@@]3(C)[C@H]2CC[C@]3(O)C(=O)CO)[C@@]2(C)C=CC(=O)C=C12 [METHYLPREDNISOLONE] | 93.74 | 79.56
Cc1cc(=O)[nH]c(=S)[nH]1 [METHYLTHIOURACIL] | 80.5 | 83.19
CCc1cccc(C)c1N(C(=O)CCl)C(C)COC (configuration not stated) [METOLACHOR] | 101.7 | 93.33
Cc1ccccc1N1C(=O)c2cc(S(N)(=O)=O)c(Cl)cc2NC1C (configuration not stated) [METOLAZONE] | 66.79 | 62.42
Cc1ncc([N+](=O)[O-])n1CCO [METRONIDAZOLE] | 98.27 | 102.6
C[C@](N)(Cc1ccc(O)cc1)C(=O)O [METYROSINE] | 84.41 | 64.38
COC(=O)C[C@H]1C(C)(C)C(=O)[C@@H]2CC3=C4CC(=O)O[C@@H](c5ccoc5)[C@]4(C)CC[C@@H]3[C@@]1(C)C2=O [MEXICANOLIDE] | 122.7 | 44.09
